Results published in ChEMBL document CHEMBL4312024, “Optimization of piperazine-derived ureas privileged structures for effective antiadenovirus agents” (Eur J Med Chem, 2020).
The source made the active and inactive calls. The calls are words filed in the database; no cut-off is given here.

Columns and labels:
Human adenovirus 5 [1] = assay: Antiviral activity against Human adenovirus 5 infected in HEK293beta5 cells coexpressing GFP assessed as inhibition of plaque formation incubated for 7 days; type: functional, organism-based; conditions: Human mastadenovirus C, 168 h
Human adenovirus 5 [2] = assay: Antiviral activity against Human adenovirus 5 infected in HEK293beta5 cells coexpressing GFP assessed as inhibition of plaque formation at 10 uM incubated for 7 days relative to control; type: functional; conditions: Human mastadenovirus C, 168 h
[3] = Cytotoxicity against human A549 cells assessed as reduction in cell viability incubated for 48 hrs by alamarBlue assay; type: cell-based
Human adenovirus 5 [4] = assay: Antiviral activity against Human adenovirus 5 infected in A549 cells assessed as fold reduction in virus yield at 50 uM incubated for 48 hrs by endpoint dilution method relative to control; type: functional
[5] = Selectivity Index, ratio of CC50 for human A549 cells to IC50 for Human adenovirus 5 infected in HEK293beta5 cells coexpressing GFP; type: toxicity, cell-based; conditions: read-out: Ratio CC50/IC50
Human adenovirus 5 [6] = assay: Antiviral activity against Human adenovirus 5 infected in A549 cells assessed as nuclear associated viral DNA copies at 50 uM incubated for 45 mins by qRT-PCR analysis; type: functional, organism-based
[7] = Stability in Syrian hamster serum assessed as parent compound remaining at 1 uM measured after 60 mins by LC-MS/MS analysis; type: ADME, cell-free, Mesocricetus auratus; conditions: read-out: Stability
[8] = Stability in Syrian hamster serum assessed as parent compound remaining at 1 uM measured immediately by LC-MS/MS analysis; type: ADME, cell-free, Mesocricetus auratus; conditions: read-out: Stability
[9] = Stability in Syrian hamster serum assessed as parent compound remaining at 1 uM measured after 15 mins by LC-MS/MS analysis; type: ADME, cell-free, Mesocricetus auratus; conditions: for remaining at 0.25 h, 1 µM: read-out: Stability
[10] = Stability in Syrian hamster serum assessed as parent compound remaining at 1 uM measured after 30 mins by LC-MS/MS analysis; type: ADME, cell-free, Mesocricetus auratus; conditions: for remaining at 0.5 h, 1 µM: read-out: Stability
[11] = Stability in Syrian hamster serum assessed as parent compound remaining at 1 uM measured after 120 mins by LC-MS/MS analysis; type: ADME, cell-free, Mesocricetus auratus; conditions: read-out: Stability
Human betaherpesvirus 5 = assay: Antiviral activity against Human cytomegalovirus infected in MRC5 cells assessed as decrease in viral DNA copies at 50 uM incubated for 72 hrs by qRT-PCR analysis; type: functional, organism-based
Human adenovirus 5 [12] = assay: Antiviral activity against Human adenovirus 5 infected in A549 cells assessed as decrease in […] cDNA copies incubated for 24 hrs by qRT-PCR analysis; type: functional, organism-based
Human adenovirus 5 [13] = assay: Antiviral activity against Human adenovirus 5 infected in A549 cells assessed as decrease in […] cDNA copies at 50 uM incubated for 24 hrs by qRT-PCR analysis; type: functional, organism-based

| Compound | IC50 (Human adenovirus 5 [1]) [µM] | inhibition at 10 µM (Human adenovirus 5 [2]) [%] | CC50 at 48 h [3] [µM] | fold change (FC) (Human adenovirus 5 [4]) | selectivity ratio [5] | Activity (Human adenovirus 5 [6]) | other results |
| --- | --- | --- | --- | --- | --- | --- | --- |
| Nc1ccn(C[C@@H](CO)OCP(=O)(O)O)c(=O)n1.O.O [CIDOFOVIR] | 24.1 | 3.51 | 50.6 | 82.5 | – | – | – |
| CC(C)(C)CC(=O)N1CCN(C(=S)Nc2cc(C(F)(F)F)cc(C(F)(F)F)c2)C(c2ccccc2)C1 (configuration not stated) | – | 100 | 91.8 | – | – | – | – |
| CC1CN(C(=O)c2cc3ccccc3o2)CCN1C(=S)Nc1ccc(F)cc1 (configuration not stated) | – | 85 | 75.4 | – | – | – | – |
| O=C(Cc1ccccc1)N1CCN(C(=S)Nc2cc(C(F)(F)F)cc(C(F)(F)F)c2)C(c2ccccc2)C1 (configuration not stated) | 0.7 | 100 | 104 | 1690 | 149 | Active | remaining at 1 h, 1 µM [7]: 90.5%; remaining at 0 min, 1 µM [8]: 100%; remaining at 0.25 h, 1 µM [9]: 97.2%; remaining at 0.5 h, 1 µM [10]: 110%; remaining at 2 h, 1 µM [11]: 100% |
| N#Cc1ccc(NC(=O)N2CCN(C(=O)c3cc4ccccc4o3)CC2c2ccccc2)cc1 (configuration not stated) | – | – | – | 34.5 | 53.3 | – | – |
| Cc1ccc(NC(=S)N2CCN(C(=O)Cc3ccccc3)CC2C)cc1 (configuration not stated) | – | 92.9 | 200 | – | – | – | – |
| CC1CN(C(=O)CC2CCCCC2)CCN1C(=S)Nc1ccc(Cl)cc1 (configuration not stated) | – | 89.3 | 200 | – | – | – | – |
| O=C(c1cc2ccccc2o1)N1CCN(C(=O)Nc2ccc(Cl)cc2)C(c2ccccc2)C1 (configuration not stated) | – | – | – | 16.9 | 42.7 | – | – |
| CC1CN(C(=O)CC2CCCCC2)CCN1C(=S)Nc1ccc([N+](=O)[O-])cc1 (configuration not stated) | – | 82.6 | 148 | – | – | – | – |
| CC1CN(C(=O)Cc2ccccc2)CCN1C(=S)Nc1cc(C(F)(F)F)cc(C(F)(F)F)c1 (configuration not stated) | 5.1 | 73.4 | – | 33.4 | 25.4 | Active | remaining at 1 h, 1 µM [7]: 96.5%; Activity (Human betaherpesvirus 5): Active; remaining at 0 min, 1 µM [8]: 100%; remaining at 0.25 h, 1 µM [9]: 109%; remaining at 0.5 h, 1 µM [10]: 107%; Activity (Human adenovirus 5 [12]): Dose-dependent effect; remaining at 2 h, 1 µM [11]: 92.8%; Activity (Human adenovirus 5 [13]): Active |
| CC1CN(C(=O)CC2CCCCC2)CCN1C(=S)Nc1ccc(F)cc1 (configuration not stated) | 0.6 | 100 | 143 | 30.5 | 238 | Active | remaining at 1 h, 1 µM [7]: 85%; remaining at 0 min, 1 µM [8]: 100%; remaining at 0.25 h, 1 µM [9]: 117%; remaining at 0.5 h, 1 µM [10]: 96.4%; remaining at 2 h, 1 µM [11]: 67.3% |
| CC1CN(C(=O)Cc2ccccc2)CCN1C(=S)Nc1ccc([N+](=O)[O-])cc1 (configuration not stated) | 2 | 98.2 | 210 | 25.6 | 105 | Active | remaining at 1 h, 1 µM [7]: 114%; Activity (Human betaherpesvirus 5): Active; remaining at 0 min, 1 µM [8]: 100%; Stability ([9]; 0.25 h, 1 µM): 142.7%; Stability ([10]; 0.5 h, 1 µM): 139.4%; remaining at 2 h, 1 µM [11]: 107%; Activity (Human adenovirus 5 [13]): inactive |
| CC1CN(C(=O)c2cc3ccccc3o2)CC(C)N1C(=O)Nc1ccc(Cl)cc1 (configuration not stated) | – | 81.1 | 113 | – | – | – | – |
| CC1CN(C(=O)c2cc3ccccc3o2)CCN1C(=S)Nc1ccc(C#N)cc1 (configuration not stated) | – | 100 | 25.5 | – | – | – | – |
| O=C(c1cc2ccccc2o1)N1CCN(C(=O)Nc2ccc([N+](=O)[O-])cc2)C(c2ccccc2)C1 (configuration not stated) | – | 100 | – | – | 93.5 | – | – |
| O=C(CC1CCCCC1)N1CCN(C(=O)Nc2ccc([N+](=O)[O-])cc2)C(c2ccccc2)C1 (configuration not stated) | – | 98.9 | 71.8 | – | – | – | – |
| CC1CN(C(=O)Cc2ccccc2)CCN1C(=S)Nc1ccc(C#N)cc1 (configuration not stated) | 4.6 | 98.4 | 175 | 18.4 | 38 | Active | Activity (Human betaherpesvirus 5): Active; Activity (Human adenovirus 5 [13]): inactive |
| N#Cc1ccc(NC(=S)N2CCN(C(=O)CC3CCCCC3)CC2c2ccccc2)cc1 (configuration not stated) | – | 80 | 65.3 | – | – | – | – |
| O=C(Nc1cc(C(F)(F)F)ccc1Cl)N1CCN(C(=O)Nc2cc(C(F)(F)F)ccc2Cl)C(c2ccccc2)C1 (configuration not stated) | – | 90.4 | 200 | – | – | – | – |

| Compound | IC50 (Human adenovirus 5 [1]) [µM] | inhibition at 10 µM (Human adenovirus 5 [2]) [%] | CC50 at 48 h [3] [µM] | fold change (FC) (Human adenovirus 5 [4]) | selectivity ratio [5] | Activity (Human adenovirus 5 [6]) | other results |
| --- | --- | --- | --- | --- | --- | --- | --- |
| CC(C)(C)OC(=O)N1CCN(C(=O)Nc2cc(C(F)(F)F)ccc2Cl)CC1 | 2.3 | 95 | 200 | 18.7 | 87 | Active | Activity (Human betaherpesvirus 5): Active |
| O=C(CC1CCCCC1)N1CCN(C(=O)Nc2ccccc2[N+](=O)[O-])C(c2ccccc2)C1 (configuration not stated) | 1.4 | 100 | 112 | 15.2 | 80.1 | Active | Activity (Human betaherpesvirus 5): Active |
| CC1CN(C(=O)Cc2ccccc2)CCN1C(=S)Nc1ccc(Cl)cc1 (configuration not stated) | – | 84.6 | 175 | – | – | – | – |
| CC[C@H](C)[C@@H]1NC(=O)CNC(=O)[C@@H]2Cc3c([nH]c4cc(O)ccc34)[S@+]([O-])C[C@H](NC(=O)CNC1=O)C(=O)N[C@@H](CC(N)=O)C(=O)N1C[C@H](O)C[C@H]1C(=O)N[C@@H]([C@@H](C)[C@@H](O)CO)C(=O)N2 | – | – | – | – | – | – | Activity (Human adenovirus 5 [12]): Dose-dependent effect |
| O=C(c1cc2ccccc2o1)N1CCN(C(=O)Nc2ccccc2[N+](=O)[O-])C(c2ccccc2)C1 (configuration not stated) | – | 100 | – | 9.9 | 79 | – | – |
| CC(C)(C)CC(=O)N1CCN(C(=O)Nc2ccc([N+](=O)[O-])cc2)C(c2ccccc2)C1 (configuration not stated) | – | 74.4 | 72 | – | – | – | – |
| CC1CN(C(=O)OC(C)(C)C)CCN1C(=S)Nc1ccc(F)cc1 (configuration not stated) | 1.8 | 92.9 | 200 | 12.1 | 111 | Active | remaining at 1 h, 1 µM [7]: 86.5%; remaining at 0 min, 1 µM [8]: 100%; remaining at 0.25 h, 1 µM [9]: 97.8%; remaining at 0.5 h, 1 µM [10]: 102%; remaining at 2 h, 1 µM [11]: 75.4% |
| O=C(Cc1ccccc1)N1CCN(C(=O)Nc2ccccc2[N+](=O)[O-])C(c2ccccc2)C1 (configuration not stated) | 2.1 | 96.9 | 120 | 32.9 | 57.4 | Active | Activity (Human betaherpesvirus 5): Active |
| O=C(Cc1ccccc1)N1CCN(C(=O)Nc2cc(C(F)(F)F)ccc2Cl)C(c2ccccc2)C1 (configuration not stated) | – | 100 | 64.5 | – | – | – | – |
| Cc1ccc(NC(=S)N2CCN(C(=O)CC3CCCCC3)CC2C)cc1 (configuration not stated) | 2.1 | 95.8 | 122 | 39.1 | 58.2 | Active | Activity (Human betaherpesvirus 5): Active; Activity (Human adenovirus 5 [13]): inactive |
| CC(C)(C)OC(=O)N1CCN(C(=O)Nc2ccc([N+](=O)[O-])cc2)C(c2ccccc2)C1 (configuration not stated) | – | – | – | – | 47.3 | – | – |
| CC(C)(C)OC(=O)N1CCN(C(=O)Nc2ccc([N+](=O)[O-])cc2)CC1 | 2.7 | 91.5 | 118 | 21.2 | 43.7 | Active | Activity (Human betaherpesvirus 5): Active; Activity (Human adenovirus 5 [13]): inactive |
| CC1CN(C(=O)c2cc3ccccc3o2)CCN1C(=S)Nc1ccc([N+](=O)[O-])cc1 (configuration not stated) | – | 100 | 20 | – | – | – | – |
| CC1CN(C(=O)CC2CCCCC2)CCN1C(=S)Nc1ccc(C#N)cc1 (configuration not stated) | 2.5 | 100 | 193 | 9.3 | 77.2 | Active | – |
| COc1ccc(NC(=S)N2CCN(C(=O)Cc3ccccc3)CC2C)cc1 (configuration not stated) | – | 88.9 | 175 | – | – | – | – |
| CC1CN(C(=O)CC2CCCCC2)CCN1C(=S)Nc1ccc(C(F)(F)F)cc1 (configuration not stated) | – | 88.9 | 142 | – | – | – | – |
| CC1CN(C(=O)CC2CCCCC2)CCN1C(=S)Nc1cc(C(F)(F)F)cc(C(F)(F)F)c1 (configuration not stated) | – | 100 | 82.4 | – | – | – | – |
| CC(C)(C)CC(=O)N1CCN(C(=O)Nc2ccccc2[N+](=O)[O-])C(c2ccccc2)C1 (configuration not stated) | – | 100 | 63.3 | – | – | – | – |
| O=C(c1cc2ccccc2o1)N1CCN(C(=O)Nc2cc(C(F)(F)F)ccc2Cl)C(c2ccccc2)C1 (configuration not stated) | – | – | – | – | 116 | – | – |
